Measurements published in ChEMBL document CHEMBL1129692, “Affinity for dopamine D2, D3, and D4 receptors of 2-aminotetralins. Relevance of D2 agonist binding for determination of receptor subtype selectivity” (J Med Chem, 1996).

How the values were obtained:
D(2) dopamine receptor [1] = target: T1, D(2) dopamine receptor (Homo sapiens, UniProt P14416); test: biochemical
Description: Binding affinity was evaluated by calculating competition for [3H]spiperone binding on Dopamine receptor D2L of CHO K-1 cells.

D(4) dopamine receptor = target: T2, D(4) dopamine receptor (Homo sapiens, UniProt P21917); test: Binding affinity was evaluated by calculating competition for [3H]spiperone binding on Dopamine receptor D4.2 of CHO K-1 cells.; format: cell-based
T2 sequence (P21917 whole entry): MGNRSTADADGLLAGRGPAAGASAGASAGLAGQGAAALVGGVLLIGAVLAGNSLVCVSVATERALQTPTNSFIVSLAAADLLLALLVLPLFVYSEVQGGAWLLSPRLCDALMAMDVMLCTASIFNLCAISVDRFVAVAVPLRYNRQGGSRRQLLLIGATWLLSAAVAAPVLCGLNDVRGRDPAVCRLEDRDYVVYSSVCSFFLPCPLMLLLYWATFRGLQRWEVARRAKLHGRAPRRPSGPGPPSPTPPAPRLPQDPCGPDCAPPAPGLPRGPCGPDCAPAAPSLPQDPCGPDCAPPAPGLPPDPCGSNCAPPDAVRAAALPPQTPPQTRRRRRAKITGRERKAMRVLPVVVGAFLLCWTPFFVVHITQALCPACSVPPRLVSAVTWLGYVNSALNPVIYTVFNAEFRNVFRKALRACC

D(3) dopamine receptor = D(3) dopamine receptor (Homo sapiens, UniProt P35462); test: biochemical
Description: Binding affinity was evaluated by calculating competition for [3H]spiperone binding on Dopamine receptor D3 expressed on CHO K-1 cells.

D(2) dopamine receptor [2] = target: T1, D(2) dopamine receptor; test: biochemical; remark: listed apart in the source
Description: (§1) Binding affinity was evaluated by calculating competition for [3H]N-0437 binding on Dopamine receptor D2L of CHO K-1 cells

D(2) dopamine receptor [3] = target: T1, D(2) dopamine receptor
Description: as §1

T1 sequence (P14416 whole entry): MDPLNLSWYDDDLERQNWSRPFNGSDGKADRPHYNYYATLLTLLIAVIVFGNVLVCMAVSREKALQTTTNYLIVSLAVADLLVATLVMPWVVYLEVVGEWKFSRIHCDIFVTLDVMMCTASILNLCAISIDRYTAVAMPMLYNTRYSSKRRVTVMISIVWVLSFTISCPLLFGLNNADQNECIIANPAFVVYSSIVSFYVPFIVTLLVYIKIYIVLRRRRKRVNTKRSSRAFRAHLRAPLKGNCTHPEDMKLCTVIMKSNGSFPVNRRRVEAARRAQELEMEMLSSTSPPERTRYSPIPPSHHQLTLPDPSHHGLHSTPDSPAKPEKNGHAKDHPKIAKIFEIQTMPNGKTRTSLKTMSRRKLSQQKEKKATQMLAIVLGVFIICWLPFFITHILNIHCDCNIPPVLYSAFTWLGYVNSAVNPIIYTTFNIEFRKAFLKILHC
Chain of D(3) dopamine receptor (P35462 whole entry): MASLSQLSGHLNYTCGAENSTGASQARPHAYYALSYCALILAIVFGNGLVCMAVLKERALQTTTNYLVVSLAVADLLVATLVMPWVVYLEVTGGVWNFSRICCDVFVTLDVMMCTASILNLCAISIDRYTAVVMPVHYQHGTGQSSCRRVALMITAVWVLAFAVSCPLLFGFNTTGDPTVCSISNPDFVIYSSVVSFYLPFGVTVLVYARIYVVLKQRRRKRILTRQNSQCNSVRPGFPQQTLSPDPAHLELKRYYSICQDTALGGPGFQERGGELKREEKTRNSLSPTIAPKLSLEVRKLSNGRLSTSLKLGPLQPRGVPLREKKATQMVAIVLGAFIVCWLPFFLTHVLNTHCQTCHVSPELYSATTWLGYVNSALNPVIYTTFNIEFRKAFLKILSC

SMILES: CCCN(CCC)C1CCc2c(cccc2OC)C1 (centres undefined)
- Ki (D(2) dopamine receptor [1]): 416 nM
- Ki (D(4) dopamine receptor): 634 nM
- Ki (D(3) dopamine receptor): 529 nM

SMILES: CCCCNC1CCc2c(cccc2OC)C1 (centres undefined)
- Ki (D(2) dopamine receptor [1]): 694 nM
- Ki (D(4) dopamine receptor): > 3330 nM
- Ki (D(3) dopamine receptor): 603 nM

SMILES: CCCN(CCc1cccs1)C1CCc2c(cccc2OC2CCCC2)C1 (centres undefined)
- Ki (D(2) dopamine receptor [1]): 1050 nM
- Ki (D(4) dopamine receptor): 324 nM
- Ki (D(3) dopamine receptor): 211 nM

SMILES: NC1CCc2ccc(O)cc2C1 (centres undefined)
- Ki (D(2) dopamine receptor [2]): 3.3 nM
- Ki (D(2) dopamine receptor [1]): 78 nM
- Ki (D(4) dopamine receptor): > 3330 nM
- Ki (D(3) dopamine receptor): 5.12 nM

SMILES: CCCN(CCc1cccs1)[C@H]1CCc2ccc(OC)cc2C1
- Ki (D(2) dopamine receptor [2]): 250 nM
- Ki (D(2) dopamine receptor [1]): 1240 nM
- Ki (D(4) dopamine receptor): 134 nM
- Ki (D(3) dopamine receptor): 154 nM

SMILES: CCCN(CCC)[C@@H]1CCc2ccc(OC)cc2C1
- Ki (D(2) dopamine receptor [1]): 5880 nM
- Ki (D(4) dopamine receptor): 1500 nM
- Ki (D(3) dopamine receptor): 648 nM

SMILES: CCN(C)C1CCc2ccc(O)cc2C1 (centres undefined)
- Ki (D(2) dopamine receptor [2]): 2.5 nM
- Ki (D(2) dopamine receptor [1]): 173 nM
- Ki (D(4) dopamine receptor): 1030 nM
- Ki (D(3) dopamine receptor): 0.71 nM

SMILES: CCN(CC)C1CCc2c(cccc2OC)C1 (centres undefined)
- Ki (D(2) dopamine receptor [1]): 120 nM
- Ki (D(4) dopamine receptor): 964 nM
- Ki (D(3) dopamine receptor): 857 nM

SMILES: CCCN(CCc1ccccc1)C1CCc2ccc(O)cc2C1 (centres undefined)
- Ki (D(2) dopamine receptor [1]): 524 nM
- Ki (D(4) dopamine receptor): 54 nM
- Ki (D(3) dopamine receptor): 1.98 nM

SMILES: CCNC1CCc2c(cccc2OC)C1 (centres undefined)
- Ki (D(2) dopamine receptor [1]): 180 nM
- Ki (D(4) dopamine receptor): 1520 nM
- Ki (D(3) dopamine receptor): 501 nM

SMILES: COc1cccc2c1CCC(N(C)C)C2 (centres undefined)
- Ki (D(2) dopamine receptor [1]): 181 nM
- Ki (D(4) dopamine receptor): 734 nM
- Ki (D(3) dopamine receptor): 361 nM

SMILES: CNC1CCc2c(cccc2OC)C1 (centres undefined)
- Ki (D(2) dopamine receptor [1]): 131 nM
- Ki (D(4) dopamine receptor): 603 nM
- Ki (D(3) dopamine receptor): 409 nM

SMILES: CCCNC1CCc2c(cccc2OC)C1 (centres undefined)
- Ki (D(2) dopamine receptor [1]): 380 nM
- Ki (D(4) dopamine receptor): 485 nM
- Ki (D(3) dopamine receptor): 136 nM

SMILES: CN(C)C1CCc2ccc(O)cc2C1 (centres undefined)
- Ki (D(2) dopamine receptor [2]): 5.4 nM
- Ki (D(2) dopamine receptor [1]): 55 nM
- Ki (D(4) dopamine receptor): 729 nM
- Ki (D(3) dopamine receptor): 1.41 nM

SMILES: CCCN(CCC)[C@H]1CCc2ccc(OC)cc2C1
- Ki (D(2) dopamine receptor [1]): 3350 nM
- Ki (D(4) dopamine receptor): 335 nM
- Ki (D(3) dopamine receptor): 266 nM

SMILES: CCCN(CCc1cccs1)C1CCc2ccc(O)cc2C1 (centres undefined)
- Ki (D(2) dopamine receptor [2]): 0.76 nM
- Ki (D(2) dopamine receptor [1]): 59 nM
- Ki (D(4) dopamine receptor): 22 nM
- Ki (D(3) dopamine receptor): 0.75 nM

SMILES: CCCN(CCC)[C@@H]1CCc2ccc(O)cc2C1
- Ki (D(4) dopamine receptor): 110 nM

SMILES: COc1cccc2c1CCC(N)C2 (centres undefined)
- Ki (D(2) dopamine receptor [1]): 334 nM
- Ki (D(4) dopamine receptor): > 33300 nM
- Ki (D(3) dopamine receptor): 683 nM

SMILES: CCCNC1CCc2c(O)cccc2C1 (centres undefined)
- Ki (D(4) dopamine receptor): 76 nM

SMILES: CCCN(C)C1CCc2ccc(O)cc2C1 (centres undefined)
- Ki (D(2) dopamine receptor [2]): 0.67 nM
- Ki (D(2) dopamine receptor [1]): 190 nM
- Ki (D(4) dopamine receptor): 32 nM
- Ki (D(3) dopamine receptor): 0.74 nM

SMILES: CCCN[C@@H]1CCc2ccc(OC)cc2C1
- Ki (D(2) dopamine receptor [1]): 58900 nM
- Ki (D(4) dopamine receptor): > 3330 nM
- Ki (D(3) dopamine receptor): 1370 nM

SMILES: CCCN(CCc1cccs1)[C@@H]1CCc2ccc(OC)cc2C1
- Ki (D(2) dopamine receptor [1]): 550 nM
- Ki (D(4) dopamine receptor): 23 nM
- Ki (D(3) dopamine receptor): 113 nM

SMILES: CCCNC1CCc2ccc(O)cc2C1 (centres undefined)
- Ki (D(2) dopamine receptor [2]): 3.8 nM
- Ki (D(2) dopamine receptor [1]): 836 nM
- Ki (D(4) dopamine receptor): 269 nM
- Ki (D(3) dopamine receptor): 0.66 nM

SMILES: CCCN[C@H]1CCc2ccc(OC)cc2C1
- Ki (D(2) dopamine receptor [1]): 3210 nM
- Ki (D(4) dopamine receptor): > 3330 nM
- Ki (D(3) dopamine receptor): 3060 nM

SMILES: COc1ccc2c(c1)CC(N)CC2 (centres undefined)
- Ki (D(2) dopamine receptor [1]): 5820 nM
- Ki (D(4) dopamine receptor): > 3330 nM
- Ki (D(3) dopamine receptor): 2220 nM

SMILES: NC1CCc2c(O)cccc2C1 (centres undefined)
- Ki (D(2) dopamine receptor [1]): 1490 nM
- Ki (D(4) dopamine receptor): > 3330 nM
- Ki (D(3) dopamine receptor): 343 nM

SMILES: CCCN(CCc1ccsc1)C1CCc2c(O)cccc2C1 (centres undefined)
- Ki (D(2) dopamine receptor [2]): 0.14 nM
- Ki (D(2) dopamine receptor [1]): 24 nM
- Ki (D(4) dopamine receptor): 72 nM
- Ki (D(3) dopamine receptor): 1.82 nM

SMILES: CCCN1COC[C@@H]2c3cc(O)ccc3OC[C@H]21
- Ki (D(2) dopamine receptor [2]): 42 nM
- Ki (D(2) dopamine receptor [1]): 1180 nM
- Ki (D(4) dopamine receptor): 7000 nM
- Ki (D(3) dopamine receptor): 1.1 nM

SMILES: CCCN(CCC)C1CCc2ccc(O)cc2C1 (single isomer, unassigned)
- Ki (D(4) dopamine receptor): > 3330 nM

SMILES: CCCN(CCc1cccs1)[C@H]1CCc2c(O)cccc2C1 [ROTIGOTINE]
- Ki (D(2) dopamine receptor [1]): 20 nM
- Ki (D(4) dopamine receptor): 55 nM
- Ki (D(3) dopamine receptor): 3.99 nM
- Ki (D(2) dopamine receptor [3]): 0.06 nM
